Publication PMC9405973, “Altered Conformational Landscape upon Sensing Guanine Nucleotides in a Disease Mutant of Elongation Factor-like 1 (EFL1) GTPase” (Biomolecules, 2022)
Several values for one entry are separate records, joined by “and”; a condition that tells them apart may be missing. Identical values can stand only once. Like-named read-outs stand apart in the source and are kept apart here.

Columns and labels:
Efl1 R1086Q•Sdo1 = target: T1, Efl1 R1086Q•Sdo1 (Saccharomyces cerevisiae, UniProt P53893, R1086Q); assay: ITC: binding of guanine nucleotides to pre-formed complex Efl1 R1086Q•Sdo1; conditions: for ΔCpb: from ΔHb at 25–35 °C; for -TΔs / Δg / Δh / κ (heterotropic cooperativity): Effect of Mg^2+
T1 construct: made in house; host or cells: Efl1: Saccharomyces cerevisiae; Sdo1: Escherichia coli C41
Protocol: All calorimetric measurements were carried out using MicroCal^TM iTC200 System (GE Healthcare, Northampton, MA, USA) in a temperature range of 25–35 °C. Experiments were performed in a buffer consisting of 50 mM Tris-HCl (pH 8.0), 150 mM NaCl, 100 µM DTT, and 5% glycerol. In the titrations with Mg^2+-bound nucleotides, both the ligand and protein solutions contained 5 mM MgCl2. In the case of titrations with Mg^2+-free nucleotide, both the ligand and protein solutions were supplemented with 2 mM EDTA to sequester any residual trace of metal ions in solution. Protein samples and ligands were prepared in the exact same buffer prior to each titration. Protein concentration in the cell comprised 30–50 µM GTPase, while the ligand concentration in the syringe was 2–3 mM for GTP, MgGTP, GDP, and MgGDP. To ensure measuring the interaction of the complex Efl1 R1086Q•Sdo1 with the nucleotide, an eight-fold concentration excess of Sdo1 was used compared with that of the enzyme. […] The titration schedule consisted of 15–20 consecutive injections of the ligand with 5 min intervals between injections and a stirring rate of 700 rpm. The dilution heat of the ligand was obtained by adding the ligand to a buffer solution under identical conditions and with the same injection schedule used for the protein sample. All samples were degassed for 10 min prior to the experiment.
The binding isotherms obtained for the isolated GTPase in the presence of Mg(II) were analysed using a ternary model in which the protein can bind to the free nucleotide (G(D)TP) or that bound to one magnesium ion (MgG(D)TP); additionally, GTP may also exist in the form of Mg2GTP, which is not recognised by the protein. The derivation of this coupled-equilibria model can be reviewed in [6, 31]. The binding constant (Kb), the enthalpy change (∆Hb), and the stoichiometry (n) were obtained with the non-linear routines implemented in Origin 5.0 (OriginLab, Co., Northampton, MA, USA) using a one-binding-site model as described in [32, 33]. The heterotropic cooperativity for the binding of guanine nucleotides and Sdo1 to Efl1 R1086Q were calculated as previously described in [6, 32]. The cooperative effects of Mg(II) on the binding of guanine nucleotides to Efl1 R1086Q alone and bound to Sdo1 were calculated as follows:κ = KE-MG/KE-G κ = KES-MG/KES-G Δh = ΔHE-MG − ΔHE-G Δh = ΔHES-MG − ΔHES-G where subscripts E-MG and E-G stand for the association of the metal-bound and metal-free guanine nucleotide with mutant Efl1, respectively. Corresponding expressions applied to the heterotropic cooperativity of the binding of nucleotides to the preformed complex, Efl1•Sdo1 (ES).
The impact of Sdo1 on the binding of Efl1 R1086Q to guanine nucleotides in the presence of magnesium ions is contained in KES-MG and ΔHES-MG relative to the KE-S and ΔHE-S values; analogous ratios report the effects in the absence of Mg(II):κ = KES-MG/KE-S κ = KES-G/KE-G Δh = ΔHES-MG − ΔHE-S Δh = ΔHES-G − ΔHE-G
The corresponding cooperative entropy change was calculated as:TΔs = Δh − Δg = Δh + RTlnκ
The detailed methodology and equations to compute the changes in the accessible surface area (∆ASA) of the GTPase upon binding to nucleotides and the ∆S energetic-based parameters are reported in [6]. Briefly, the water-accessible areas (ASAs) were computed using programme NACCESS, while the changes in accessible surface area (ΔASA) upon the formation of each GTPase–nucleotide complex were estimated considering the difference between the complex and the sum of the free interacting partners. The calculated polar (ΔASAp) and apolar (ΔASAap) area changes were subsequently used to estimate the free molecular partners. […]

wild-type Efl1 = conditions: cited from earlier work; for -TΔSb / Kd / ΔGb / ΔHb / ΔCpb: guanine nucleotide
wild-type Efl1•Sdo1 = test system: wild-type Efl1•Sdo1; design: method as in PMID 30780079; conditions: −Mg^2+, cited from earlier work
[1] = Effect of Mg^2+, wild-type Efl1 − Sdo1, 30 °C
[2] = Effect of Sdo1, wild-type Efl1 − Mg^2+, 30 °C

T1 sequence (P53893 whole entry R1086Q): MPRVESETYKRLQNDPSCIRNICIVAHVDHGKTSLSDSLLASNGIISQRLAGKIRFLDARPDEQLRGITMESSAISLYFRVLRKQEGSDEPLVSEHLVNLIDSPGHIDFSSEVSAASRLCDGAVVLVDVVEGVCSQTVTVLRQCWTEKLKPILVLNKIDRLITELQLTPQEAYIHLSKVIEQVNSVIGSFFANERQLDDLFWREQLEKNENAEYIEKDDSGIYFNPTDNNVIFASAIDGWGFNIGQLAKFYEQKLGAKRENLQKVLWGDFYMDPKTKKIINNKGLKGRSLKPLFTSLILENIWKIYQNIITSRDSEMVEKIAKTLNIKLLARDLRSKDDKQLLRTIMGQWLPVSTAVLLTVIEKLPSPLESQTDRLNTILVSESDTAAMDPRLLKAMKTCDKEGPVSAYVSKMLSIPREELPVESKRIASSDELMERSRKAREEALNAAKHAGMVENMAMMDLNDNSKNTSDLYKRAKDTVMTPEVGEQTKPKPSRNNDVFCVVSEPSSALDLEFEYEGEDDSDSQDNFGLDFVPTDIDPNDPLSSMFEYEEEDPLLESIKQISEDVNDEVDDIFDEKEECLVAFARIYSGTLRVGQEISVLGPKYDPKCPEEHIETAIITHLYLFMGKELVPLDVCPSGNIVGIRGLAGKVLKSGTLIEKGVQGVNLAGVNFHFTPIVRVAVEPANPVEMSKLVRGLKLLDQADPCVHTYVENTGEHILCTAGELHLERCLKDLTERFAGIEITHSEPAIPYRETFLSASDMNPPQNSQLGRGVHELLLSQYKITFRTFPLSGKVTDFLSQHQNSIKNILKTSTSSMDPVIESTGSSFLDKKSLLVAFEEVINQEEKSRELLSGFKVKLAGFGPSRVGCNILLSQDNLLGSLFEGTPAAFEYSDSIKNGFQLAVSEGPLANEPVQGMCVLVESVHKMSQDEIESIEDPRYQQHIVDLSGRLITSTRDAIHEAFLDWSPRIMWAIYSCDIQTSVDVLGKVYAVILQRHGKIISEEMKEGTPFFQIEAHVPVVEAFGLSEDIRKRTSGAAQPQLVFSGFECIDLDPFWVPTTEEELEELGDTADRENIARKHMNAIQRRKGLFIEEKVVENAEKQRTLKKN
T1 sequence (Q07953 whole entry, further chain): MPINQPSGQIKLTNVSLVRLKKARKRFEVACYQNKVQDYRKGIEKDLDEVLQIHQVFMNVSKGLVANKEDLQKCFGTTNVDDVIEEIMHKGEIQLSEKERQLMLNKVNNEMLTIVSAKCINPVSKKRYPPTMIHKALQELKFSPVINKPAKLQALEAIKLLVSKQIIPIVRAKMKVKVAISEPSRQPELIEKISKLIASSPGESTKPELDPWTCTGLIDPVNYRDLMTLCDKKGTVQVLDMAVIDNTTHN

With `Nc1nc2c(ncn2[C@@H]2O[C@H](COP(=O)(O)OP(=O)(O)OP(=O)(O)O)[C@@H](O)[C@H]2O)c(=O)[nH]1` [GTP] the “-TΔSb” value (Efl1 R1086Q•Sdo1; +Mg^2+, 25 °C) was -5.1 kcal/mol, the ΔGb (Efl1 R1086Q•Sdo1; +Mg^2+, 25 °C) was -6.2 kcal/mol and the ΔHb (Efl1 R1086Q•Sdo1; +Mg^2+, 25 °C) was -1.1 ± 0.04 kcal/mol. For the same compound, the “-TΔSb” value (Efl1 R1086Q•Sdo1; +Mg^2+, 30 °C) was -2.9 kcal/mol, the “Nconfres (number of residues changing conformation, absolute value)” value (Efl1 R1086Q•Sdo1; +Mg^2+, 30 °C) was 36 and the “Nconfrotb (number of routable bonds changing conformation, absolute value)” value (Efl1 R1086Q•Sdo1; +Mg^2+, 30 °C) was 47. It also gave a ΔCpconf (Efl1 R1086Q•Sdo1; +Mg^2+, 30 °C) of −375 cal mol^−1 K^−1, a ΔCprb (Efl1 R1086Q•Sdo1; +Mg^2+, 30 °C) of −25 cal mol^−1 K^−1 and a ΔGb (Efl1 R1086Q•Sdo1; +Mg^2+, 30 °C) of -5.9 kcal/mol. The ΔHb (Efl1 R1086Q•Sdo1; +Mg^2+, 30 °C) was -3.0 ± 0.2 kcal/mol, the ΔSb (Efl1 R1086Q•Sdo1; +Mg^2+, 30 °C) was 9 cal mol^−1 K^−1 and the ΔSconf (Efl1 R1086Q•Sdo1; +Mg^2+, 30 °C) was −78 cal mol^−1 K^−1. The ΔSsolv (Efl1 R1086Q•Sdo1; +Mg^2+, 30 °C) was 96 cal mol^−1 K^−1, the “−ΔASAconf” value (Efl1 R1086Q•Sdo1; +Mg^2+, 30 °C) was 1683 Å^2 and the “-TΔSb” value (Efl1 R1086Q•Sdo1; +Mg^2+, 35 °C) was -0.9 kcal/mol. For the same compound, the ΔGb (Efl1 R1086Q•Sdo1; +Mg^2+, 35 °C) was -6.0 kcal/mol, the ΔHb (Efl1 R1086Q•Sdo1; +Mg^2+, 35 °C) was -5.1 ± 0.4 kcal/mol and the ΔCpb (Efl1 R1086Q•Sdo1; +Mg^2+) was −400 cal mol^−1 K^−1 and −400 ± 11 cal mol^−1 K^−1. For the same compound, the “-TΔs” value (Efl1 R1086Q•Sdo1; Efl1 R1086Q + Sdo1, 25 °C) was -2.6 kcal/mol, the Δg (Efl1 R1086Q•Sdo1; Efl1 R1086Q + Sdo1, 25 °C) was 0.3 kcal/mol and the Δh (Efl1 R1086Q•Sdo1; Efl1 R1086Q + Sdo1, 25 °C) was 2.9 kcal/mol. For the same compound, the “κ (heterotropic cooperativity)” value (Efl1 R1086Q•Sdo1; Efl1 R1086Q + Sdo1, 25 °C) was 0.6, the “-TΔs” value (Efl1 R1086Q•Sdo1; Efl1 R1086Q + Sdo1, 30 °C) was -0.3 kcal/mol and the Δg (Efl1 R1086Q•Sdo1; Efl1 R1086Q + Sdo1, 30 °C) was 0.6 kcal/mol. The Δh (Efl1 R1086Q•Sdo1; Efl1 R1086Q + Sdo1, 30 °C) was 0.9 kcal/mol, the “κ (heterotropic cooperativity)” value (Efl1 R1086Q•Sdo1; Efl1 R1086Q + Sdo1, 30 °C) was 0.3 and the “-TΔs” value (Efl1 R1086Q•Sdo1; Efl1 R1086Q + Sdo1, 35 °C) was 1.9 kcal/mol. For the same compound, the Δg (Efl1 R1086Q•Sdo1; Efl1 R1086Q + Sdo1, 35 °C) was 0.5 kcal/mol, the Δh (Efl1 R1086Q•Sdo1; Efl1 R1086Q + Sdo1, 35 °C) was -1.4 kcal/mol and the “κ (heterotropic cooperativity)” value (Efl1 R1086Q•Sdo1; Efl1 R1086Q + Sdo1, 35 °C) was 0.5. For the same compound, the Kd (Efl1 R1086Q•Sdo1; +Mg^2+, 25 °C) was 29 ± 5 µM, the Kd (Efl1 R1086Q•Sdo1; +Mg^2+, 30 °C) was 58 ± 7 µM and the Kd (Efl1 R1086Q•Sdo1; +Mg^2+, 35 °C) was 52 ± 7 µM. It also gave a Kd (Efl1 R1086Q•Sdo1; −Mg^2+, 25 °C) of 17 ± 5 µM, a Kd (Efl1 R1086Q•Sdo1; −Mg^2+, 30 °C) of 23 ± 7 µM and a Kd (Efl1 R1086Q•Sdo1; −Mg^2+, 35 °C) of 25 ± 7 µM. For the same compound, the “fold decrease in affinity of the preformed complex compared with the free enzyme” value (Efl1 R1086Q•Sdo1; absence of magnesium ions) was 2–4 times, the “-TΔSb” value (Efl1 R1086Q•Sdo1; −Mg^2+, 25 °C) was -2.5 kcal/mol and the ΔGb (Efl1 R1086Q•Sdo1; −Mg^2+, 25 °C) was -6.5 kcal/mol. The ΔHb (Efl1 R1086Q•Sdo1; −Mg^2+, 25 °C) was -4.0 ± 0.2 kcal/mol, the “-TΔSb” value (Efl1 R1086Q•Sdo1; −Mg^2+, 30 °C) was -2.6 kcal/mol and the “Nconfres (number of residues changing conformation, absolute value)” value (Efl1 R1086Q•Sdo1; −Mg^2+, 30 °C) was 4. The “Nconfrotb (number of routable bonds changing conformation, absolute value)” value (Efl1 R1086Q•Sdo1; −Mg^2+, 30 °C) was 14, the ΔCpconf (Efl1 R1086Q•Sdo1; −Mg^2+, 30 °C) was 41 cal mol^−1 K^−1 and the ΔGb (Efl1 R1086Q•Sdo1; −Mg^2+, 30 °C) was -6.5 kcal/mol. For the same compound, the ΔHb (Efl1 R1086Q•Sdo1; −Mg^2+, 30 °C) was -3.9 ± 0.1 kcal/mol, the ΔSb (Efl1 R1086Q•Sdo1; −Mg^2+, 30 °C) was 9 cal mol^−1 K^−1 and the ΔSconf (Efl1 R1086Q•Sdo1; −Mg^2+, 30 °C) was 24 cal mol^−1 K^−1. The ΔSsolv (Efl1 R1086Q•Sdo1; −Mg^2+, 30 °C) was −7 cal mol^−1 K^−1, the “−ΔASAconf” value (Efl1 R1086Q•Sdo1; −Mg^2+, 30 °C) was −184 Å^2 and the “-TΔSb” value (Efl1 R1086Q•Sdo1; −Mg^2+, 35 °C) was -2.8 kcal/mol. The ΔGb (Efl1 R1086Q•Sdo1; −Mg^2+, 35 °C) was -6.5 kcal/mol, the ΔHb (Efl1 R1086Q•Sdo1; −Mg^2+, 35 °C) was -3.7 ± 0.4 kcal/mol and the ΔCpb (Efl1 R1086Q•Sdo1; −Mg^2+) was 30 cal mol^−1 K^−1 and 30 ± 6 cal mol^−1 K^−1. The “-TΔs” value (wild-type Efl1; [1]) was -1.3 kcal/mol, the Δg (wild-type Efl1; [1]) was -0.4 kcal/mol and the Δh (wild-type Efl1; [1]) was 0.9 kcal/mol. The “κ (heterotropic cooperativity)” value (wild-type Efl1; [1]) was 2, the “-TΔs” value (wild-type Efl1; [2]) was -7.0 kcal/mol and the Δg (wild-type Efl1; [2]) was -1.8 kcal/mol. For the same compound, the Δh (wild-type Efl1; [2]) was 5.2 kcal/mol, the “κ (heterotropic cooperativity)” value (wild-type Efl1; [2]) was 22.3 and the “-TΔSb” value (wild-type Efl1; +Mg^2+, 30 °C) was 1.0 kcal/mol. The Kd (wild-type Efl1; +Mg^2+, 30 °C) was 125 µM, the ΔGb (wild-type Efl1; +Mg^2+, 30 °C) was -5.4 kcal/mol and the ΔHb (wild-type Efl1; +Mg^2+, 30 °C) was -6.4 ± 0.4 kcal/mol. For the same compound, the ΔCpb (wild-type Efl1; +Mg^2+) was −560 ± 23 cal mol^−1 K^−1 and −560 cal mol^−1 K^−1, the “-TΔSb” value (wild-type Efl1; −Mg^2+, 30 °C) was 2.3 kcal/mol and the Kd (wild-type Efl1; −Mg^2+, 30 °C) was 250 µM. For the same compound, the ΔGb (wild-type Efl1; −Mg^2+, 30 °C) was -5.0 kcal/mol, the ΔHb (wild-type Efl1; −Mg^2+, 30 °C) was -7.3 ± 0.3 kcal/mol and the ΔCpb (wild-type Efl1; −Mg^2+) was −700 ± 34 cal mol^−1 K^−1 and −700 cal mol^−1 K^−1. For the same compound, the “fold by which Sdo1 favoured the interaction with GTP” value (wild-type Efl1; wild-type Efl1) was 20–40 fold, the “-TΔSb” value (wild-type Efl1•Sdo1; 30 °C) was -4.7 kcal/mol and the Kd (wild-type Efl1•Sdo1; 30 °C) was 11 µM. For the same compound, the ΔGb (wild-type Efl1•Sdo1; 30 °C) was -6.8 kcal/mol, the ΔHb (wild-type Efl1•Sdo1; 30 °C) was -2.1 ± 0.2 kcal/mol and the ΔCpb (wild-type Efl1•Sdo1) was −90 cal mol^−1 K^−1 and −90 ± 5 cal mol^−1 K^−1.
